In publication PMC4357699, “Identification of a second GTP-bound magnesium ion in archaeal initiation factor 2” (Nucleic Acids Research, 2015):

Columns and labels:
Assay in all cases: nitrocellulose filter binding of [3H]GDP
Settings in all cases: read-out: apparent Kd
[1] = target: T1, Ss-aIF2 (aIF2 heterotrimer, αβγ) (Saccharolobus solfataricus, UniProt Q980A5)
T1 construct: gene eif2g; full heterotrimer of α, β and γ subunits, purified; gamma from pET15b-Ss-aIF2γ; with Translation initiation factor 2 subunit alpha; Translation initiation factor 2 subunit beta
T1 sequence (Q97Z79 whole entry): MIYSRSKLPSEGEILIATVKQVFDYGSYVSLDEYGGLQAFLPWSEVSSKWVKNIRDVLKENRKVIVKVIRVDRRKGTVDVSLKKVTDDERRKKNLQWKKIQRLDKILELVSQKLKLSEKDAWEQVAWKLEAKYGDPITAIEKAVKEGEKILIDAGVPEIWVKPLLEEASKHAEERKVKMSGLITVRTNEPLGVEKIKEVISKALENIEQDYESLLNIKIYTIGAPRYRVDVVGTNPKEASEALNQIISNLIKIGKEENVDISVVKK
T1 sequence (Q97W59 whole entry, further chain): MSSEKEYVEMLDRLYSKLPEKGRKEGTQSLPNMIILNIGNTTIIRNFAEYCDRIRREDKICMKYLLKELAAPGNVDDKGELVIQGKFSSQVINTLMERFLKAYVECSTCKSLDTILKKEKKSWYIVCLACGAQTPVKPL
T1 sequence (Q980A5 whole entry): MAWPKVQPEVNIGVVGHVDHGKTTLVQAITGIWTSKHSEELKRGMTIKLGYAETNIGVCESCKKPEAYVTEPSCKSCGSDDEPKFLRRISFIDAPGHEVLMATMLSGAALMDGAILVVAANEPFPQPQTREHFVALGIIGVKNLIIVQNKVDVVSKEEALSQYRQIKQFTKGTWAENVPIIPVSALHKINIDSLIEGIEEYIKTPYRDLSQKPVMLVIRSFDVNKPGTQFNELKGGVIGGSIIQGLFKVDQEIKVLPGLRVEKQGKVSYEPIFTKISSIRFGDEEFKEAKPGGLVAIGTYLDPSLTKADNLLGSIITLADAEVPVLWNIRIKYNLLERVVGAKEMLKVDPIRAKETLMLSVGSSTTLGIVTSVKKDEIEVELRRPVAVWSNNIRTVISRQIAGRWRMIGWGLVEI

[2] = target: T2, Ss-aIF2 (aIF2 heterotrimer, αβγ) (Saccharolobus solfataricus, UniProt Q980A5, H97A)
T2 construct: gene eif2g; full heterotrimer of α, β and γ subunits, purified; gamma from pET15b-Ss-aIF2γ; with Translation initiation factor 2 subunit alpha; Translation initiation factor 2 subunit beta
T2 sequence (Q980A5 whole entry H97A): as the sequence (Q980A5 whole entry) above, with H97A counted along it
T2 sequence (Q97W59 whole entry, further chain): as the sequence (Q97W59 whole entry, further chain) above
T2 sequence (Q97Z79 whole entry, further chain): as the sequence (Q97Z79 whole entry) above

[3] = target: T3, Ss-aIF2 (aIF2 heterotrimer, αβγ) (Saccharolobus solfataricus, UniProt Q980A5, D19A)
T3 construct: gene eif2g; full heterotrimer of α, β and γ subunits, purified; gamma from pET15b-Ss-aIF2γ; with Translation initiation factor 2 subunit alpha; Translation initiation factor 2 subunit beta
T3 sequence (Q97W59 whole entry): as the sequence (Q97W59 whole entry, further chain) above
T3 sequence (Q97Z79 whole entry, further chain): as the sequence (Q97Z79 whole entry) above
T3 sequence (Q980A5 whole entry D19A): as the sequence (Q980A5 whole entry) above, with D19A counted along it

`Nc1nc2c(ncn2[C@@H]2O[C@H](COP(=O)(O)OP(=O)(O)O)[C@@H](O)[C@H]2O)c(=O)[nH]1` [GDP] was tested, and the Kd [1] was 520 ± 120 nM, the Kd [2] was 340 ± 100 nM and the Kd [3] was 240 ± 100 nM.
